Where a name gives a salt, the structure may show the parent alone. Read-outs that look alike come from different tables or passages of the source. A value given as a limit tells only on which side of the number the result lay.

The data set is described as follows: Saline solubility at 1.00 mg/mL and 0.50 mg/mL (with pH by indicator paper). Type of data set: physicochemical. Particulars: for solubility at 1 h: saline or isotonic, thermodynamic from solid, centrifuged, soluble = no precipitate formed; for pH at 1.00 mg/mL of MGCD290 in saline: final concentration of hydroxamate 1 1.00 mg/mL, pH indicator paper. The method, then: Assays were performed to determine the saline solubility at 1.00 and 0.50 mg/ml and the stability of certain of the prodrug compounds of Examples 1-111. The following procedures were used.
Step 1. Sample preparation. An amount of the compound sample was precisely weighed to correspond to around 5 mg of the hydroxamate of compound 1, taking into account the mass of the leaving group and the salt factor if applicable. The sample was placed in a 16×125 mm glass screw cap tube. Saline was added so that the final concentration of hydroxamate 1 was 1.00 mg/mL. The pH was measured with pH indicator paper. The tube was shaken for 1 hour on a Vortex apparatus then centrifuged at 3000 rpm (1800 rcf) for 5 minutes. If the compound example was soluble (no precipitate formed) the procedure continued to step 2. If a precipitate formed then the sample was diluted with saline so that the final concentration of the hydroxamate of compound 1 was 0.50 mg/mL, and the shaking and centrifuging steps were repeated. If the compound example was soluble (no precipitate formed) the procedure continued to step 2. If a precipitate formed the sample was discarded. Step 2. HPLC analysis. A 500 μL aliquot of a sample solution prepared according to Step 1 was taken up into a 1.5 mL injection vial to which was added 500 μL of saline. The vial was shaken on a Vortex apparatus, injected into the HPLC instrument (UV detection, zero time point) and the retention time and purity of the sample compound were determined. The injection was repeated after 6 hours and 24 hours, and a comparison was made of the retention time, peak areas and level of degradation (if any) using the GDADI50 method.

Setting [1] is: 0.50 mg/mL as hydroxamate 1, shaken 1 hour, read-out: Soluble at 0.5 mg/mL of MGCD290 (Y/N).
The mark [2] stands for this setting: 1.00 mg/mL as hydroxamate 1, shaken 1 hour, read-out: Soluble at 1.00 mg/mL of MGCD290 (Y/N).

In the case of `NCCCCCCCC(=O)ONC(=O)Cc1ccc(CCCCc2ccccc2)cc1` [Compound 7, N-(8-aminooctanoyloxy)-2-(4-(4-phenylbutyl)phenyl)acetamide hydrochloride], the solubility at 1 h is < 500 µg/mL under setting [1] and < 1000 µg/mL under setting [2].

On to `CN1CCN(C(=O)ONC(=O)Cc2ccc(CCCCc3ccccc3)cc2)CC1.Cl` [Compound 45], for which the “pH at 1.00 mg/mL of MGCD290 in saline” value was 4-4.5. The solubility at 1 h under setting [1] was < 500 µg/mL. For the same compound, the solubility at 1 h under setting [2] is < 1000 µg/mL.

As for `CCCC(CCC)C(=O)ONC(=O)Cc1ccc(CCCCc2ccccc2)cc1` [Compound 50, 2-(4-(4-Phenylbutyl)phenyl)-N-(2-propylpentanoyloxyl)acetamide], the solubility at 1 h under setting [1] was < 500 µg/mL and the solubility at 1 h under setting [2] was < 1000 µg/mL.

As to `O=C(Cc1ccc(CCCCc2ccccc2)cc1)NOC(=O)CCC1CCCC1` [Compound 51], the solubility at 1 h reads like this: under setting [1], < 500 µg/mL; under setting [2], < 1000 µg/mL.

For `O=C(Cc1ccc(CCCCc2ccccc2)cc1)NOC(=O)CN1C(=O)OC[C@@H]1c1ccccc1` [Compound 52A], the “pH at 1.00 mg/mL of MGCD290 in saline” value was 4.5-5. Besides, the solubility at 1 h under setting [1] is < 500 µg/mL. For the same compound, under setting [2], the solubility at 1 h was < 1000 µg/mL.

With `COCCC(=O)ONC(=O)Cc1ccc(CCCCc2ccccc2)cc1` [Compound 52B], the solubility at 1 h was < 500 µg/mL under setting [1] and < 1000 µg/mL under setting [2].

`O=C(Cc1ccc(CCCCc2ccccc2)cc1)NOC(=O)CC1CC1` [Compound 52C]: the solubility at 1 h is, setting by setting: under setting [1], < 500 µg/mL; under setting [2], < 1000 µg/mL.

As to `CC(=O)ONC(=O)Cc1ccc(CCCCc2ccccc2)cc1` [Compound 52D], the solubility at 1 h under setting [1] is < 500 µg/mL and the solubility at 1 h under setting [2] was < 1000 µg/mL.

`CCC(=O)ONC(=O)Cc1ccc(CCCCc2ccccc2)cc1` [Compound 52E]: the solubility at 1 h is, setting by setting: under setting [1], < 500 µg/mL; under setting [2], < 1000 µg/mL.

For `O=C(Cc1ccc(CCCCc2ccccc2)cc1)NOC(=O)CCC1CCCCC1` [Compound 52], the solubility at 1 h under setting [1] was < 500 µg/mL and the solubility at 1 h under setting [2] is < 1000 µg/mL.

Regarding `COC(=O)NCC1(C(=O)ONC(=O)Cc2ccc(CCCCc3ccccc3)cc2)CC1` [Compound 53], the “pH at 1.00 mg/mL of MGCD290 in saline” value was 4.5-5. The solubility at 1 h under setting [1] is < 500 µg/mL. Further, the solubility at 1 h under setting [2] is < 1000 µg/mL.

Turning to `COCCOCCOCC(=O)NCC1(C(=O)ONC(=O)Cc2ccc(CCCCc3ccccc3)cc2)CC1` [Compound 55, 2-(2-(2-Methoxyethoxyl)ethoxy)-N-((1-((2-(4-(4-phenylbutyl)phenyl)acetamidooxy)carbonyl)cyclopropyl)methyl)acetamide], the solubility at 1 h was < 500 µg/mL under setting [1] and < 1000 µg/mL under setting [2].

`COCCOCCOCCOCCOCC(=O)NCC1(C(=O)ONC(=O)Cc2ccc(CCCCc3ccccc3)cc2)CC1` [Compound 56]: the “pH at 1.00 mg/mL of MGCD290 in saline” value is listed as 4.5-5. In addition, the solubility at 1 h under setting [1] is < 500 µg/mL. The solubility at 1 h under setting [2] is < 1000 µg/mL.

In the case of `COCCOCCOCCOCCOCCOCC(=O)NCC1(C(=O)ONC(=O)Cc2ccc(CCCCc3ccccc3)cc2)CC1` [Compound 57], the “pH at 1.00 mg/mL of MGCD290 in saline” value is recorded as 4.5-5. Further, the solubility at 1 h under setting [1] is < 500 µg/mL. Also, the solubility at 1 h under setting [2] was < 1000 µg/mL.

For the compound `COCCOCCOCC(=O)NCCC(=O)ONC(=O)Cc1ccc(CCCCc2ccccc2)cc1` [Compound 60], the “pH at 1.00 mg/mL of MGCD290 in saline” value is 4.5-5. Moreover, the solubility at 1 h under setting [1] is < 500 µg/mL. Further, under setting [2], the solubility at 1 h is < 1000 µg/mL.

Take `COCCOCCOCCOCCOCC(=O)NCCC(=O)ONC(=O)Cc1ccc(CCCCc2ccccc2)cc1` [Compound 61]: the “pH at 1.00 mg/mL of MGCD290 in saline” value was 4.5-5. Moreover, the solubility at 1 h under setting [1] was < 500 µg/mL. For the same compound, the solubility at 1 h under setting [2] is < 1000 µg/mL.

On to `COCCOCCOCCOCCOCCOCC(=O)NCCC(=O)ONC(=O)Cc1ccc(CCCCc2ccccc2)cc1` [Compound 62], for which the “pH at 1.00 mg/mL of MGCD290 in saline” value was 4.5-5. Besides, the solubility at 1 h under setting [1] is < 500 µg/mL. Also, the solubility at 1 h under setting [2] was < 1000 µg/mL.

Take `CC(=O)NCCCC[C@H](NC(C)=O)C(=O)NCCC(=O)ONC(=O)Cc1ccc(CCCCc2ccccc2)cc1` [Compound 66]: the “pH at 1.00 mg/mL of MGCD290 in saline” value is on record as 4.5-5. Besides, the solubility at 1 h under setting [1] is < 500 µg/mL. In addition, the solubility at 1 h under setting [2] was < 1000 µg/mL.

Consider `COCC(=O)NCCCC[C@H](NC(=O)COC)C(=O)NCCC(=O)ONC(=O)Cc1ccc(CCCCc2ccccc2)cc1` [Compound 67], for which the “pH at 1.00 mg/mL of MGCD290 in saline” value is given as 4.5-5. Also, the solubility at 1 h under setting [1] is < 500 µg/mL. Moreover, the solubility at 1 h under setting [2] was < 1000 µg/mL.

Regarding `COCCOCCOCCOCCOCC(=O)NCCCC[C@H](NC(=O)COCCOCCOCCOCCOC)C(=O)NCCC(=O)ONC(=O)Cc1ccc(CCCCc2ccccc2)cc1` [Compound 69], the “pH at 1.00 mg/mL of MGCD290 in saline” value was 4.5-5. The solubility at 1 h under setting [2] was > 1000 µg/mL.

In the case of `COCCOCC(=O)NCCCC[C@H](NC(=O)COCCOC)C(=O)ONC(=O)Cc1ccc(CCCCc2ccccc2)cc1` [Compound 70], the “pH at 1.00 mg/mL of MGCD290 in saline” value is 4.5-5. For the same compound, the solubility at 1 h under setting [1] was < 500 µg/mL. Further, the solubility at 1 h under setting [2] was < 1000 µg/mL.

For the compound `COCCOCCOCC(=O)NCCCC[C@H](NC(=O)COCCOCCOC)C(=O)ONC(=O)Cc1ccc(CCCCc2ccccc2)cc1` [Compound 71], the “pH at 1.00 mg/mL of MGCD290 in saline” value is 4.5-5. In addition, under setting [1], the solubility at 1 h is < 500 µg/mL. For the same compound, under setting [2], the solubility at 1 h was < 1000 µg/mL.

For `CC(C)NC(=O)ONC(=O)Cc1ccc(CCCCc2ccccc2)cc1` [Compound 73, N-(Isopropylcarbamoyloxy)-2-(4-(4-phenylbutyl)phenyl)acetamide], the “pH at 1.00 mg/mL of MGCD290 in saline” value is reported as 4.5-5. Moreover, the solubility at 1 h under setting [1] was < 500 µg/mL. Further, the solubility at 1 h under setting [2] is < 1000 µg/mL.

Turning to `CCNC(=O)ONC(=O)Cc1ccc(CCCCc2ccccc2)cc1` [Compound 74], the “pH at 1.00 mg/mL of MGCD290 in saline” value is 4.5-5. For the same compound, under setting [1], the solubility at 1 h was < 500 µg/mL. Moreover, the solubility at 1 h under setting [2] is < 1000 µg/mL.

With `CCOC(=O)CNC(=O)ONC(=O)Cc1ccc(CCCCc2ccccc2)cc1` [Compound 75], the “pH at 1.00 mg/mL of MGCD290 in saline” value is listed as 4.5-5. Further, the solubility at 1 h under setting [1] was < 500 µg/mL. Besides, the solubility at 1 h under setting [2] was < 1000 µg/mL.

Consider `CC(C)OC(=O)ONC(=O)Cc1ccc(CCCCc2ccccc2)cc1` [Compound 76, N-(isopropoxycarbonyloxy)-2-(4-(4-phenylbutyl)phenyl)acetamide], for which the “pH at 1.00 mg/mL of MGCD290 in saline” value is 4.5-5. For the same compound, under setting [1], the solubility at 1 h is < 500 µg/mL. Also, the solubility at 1 h under setting [2] was < 1000 µg/mL.

Regarding `COCCOCCOCCNC(=O)NCCC(=O)NCC1(C(=O)ONC(=O)Cc2ccc(CCCCc3ccccc3)cc2)CC1` [Compound 79, N-1-(2-(2-(2-Methoxyethoxyl)ethoxy)ethyl)-N-3-(2-(1-((2-(4-(4-phenylbutyl)phenyl)acetamidooxy)carbonylcyclopropyl)methyl)carbamoylethyl)urea], the “pH at 1.00 mg/mL of MGCD290 in saline” value was 4.5-5. Moreover, the solubility at 1 h under setting [1] is < 500 µg/mL. For the same compound, the solubility at 1 h under setting [2] was < 1000 µg/mL.

As to `COCCOCCOCCOCCOCC(=O)N1CCN(C(=O)ONC(=O)Cc2ccc(CCCCc3ccccc3)cc2)CC1` [Compound 81], the “pH at 1.00 mg/mL of MGCD290 in saline” value is 4.5-5. The solubility at 1 h under setting [2] is > 1000 µg/mL.

With `COCCOCCOCCOCCOCCOCC(=O)N1CCN(C(=O)ONC(=O)Cc2ccc(CCCCc3ccccc3)cc2)CC1` [Compound 82], the “pH at 1.00 mg/mL of MGCD290 in saline” value is given as 4.5-5. Besides, the solubility at 1 h under setting [2] was > 1000 µg/mL.

In the case of `O=C1COCCOCC(=O)N[C@H](C(=O)NCCC(=O)ONC(=O)Cc2ccc(CCCCc3ccccc3)cc2)CCCCN1` [Compound 83, (S)-6,14-Dioxo-N-(3-oxo-3-(2-(4-(4-phenylbutyl)phenyl)acetamidooxy)propyl)-1,4-dioxa-7,13-diazacyclopentadecane-8-carboxamide], the “pH at 1.00 mg/mL of MGCD290 in saline” value is 4.5-5. The solubility at 1 h under setting [1] is < 500 µg/mL. Further, under setting [2], the solubility at 1 h is < 1000 µg/mL.

`O=C1COCCOCCOCC(=O)N[C@H](C(=O)NCCC(=O)ONC(=O)Cc2ccc(CCCCc3ccccc3)cc2)CCCCN1` [Compound 84]: the “pH at 1.00 mg/mL of MGCD290 in saline” value is 4.5-5. Further, the solubility at 1 h under setting [1] is < 500 µg/mL. In addition, the solubility at 1 h under setting [2] was < 1000 µg/mL.

As to `COCCOCCOCCOCCOCC(=O)NC[C@H](C)C(=O)ONC(=O)Cc1ccc(CCCCc2ccccc2)cc1` [Compound 87, (S)—N-(2-Methyl-3-oxo-3-(2-(4-(4-phenylbutyl)phenyl)acetamidooxy)propyl)-2,5,8,11,14-pentaoxahexadecan-16-amide], the “pH at 1.00 mg/mL of MGCD290 in saline” value is 4.5-5. The solubility at 1 h under setting [1] is < 500 µg/mL. Also, under setting [2], the solubility at 1 h is < 1000 µg/mL.

On to `COCCOCCOCCOCCOCC(=O)N[C@@H](C)CC(=O)ONC(=O)Cc1ccc(CCCCc2ccccc2)cc1` [Compound 88], for which the “pH at 1.00 mg/mL of MGCD290 in saline” value was 4.5-5. The solubility at 1 h under setting [1] was < 500 µg/mL. Also, the solubility at 1 h under setting [2] was < 1000 µg/mL.

For the origin of these results see US20150203517A1, “Prodrugs of Compounds that Enhance Antifungal Activity and Compositions of Said Prodrugs” (priority 2014, published 2015).
